Residue numbers refer to the chain shown, from its start. Where “and” joins values, the source holds several entries; their conditions need not be identical. Equal entries are not always repeated. Where two headings read alike, the source gives them in different places.
Legend:
[1] = test system: stabilized α1BAR mutant with L334 and L334F back-mutant; details: saturation binding, whole E. coli cells, L334 vs L334F back-mutant
α1BAR G183^4.63→V = molecular target: T1, α1BAR G183^4.63→V (Homo sapiens, UniProt P35368, G183V); experiment: Agonist-induced IP1 accumulation (Gq signaling, HTRF IP-One) in transfected HEK293T/17 cells; type: cell-based
T1 construct: harboring the wild-type helix 8 and the full-length C-terminus as well as the entire ICL3; expressed in transfected cells; host or cells: HEK293T/17
T1 sequence (P35368 whole entry G183V): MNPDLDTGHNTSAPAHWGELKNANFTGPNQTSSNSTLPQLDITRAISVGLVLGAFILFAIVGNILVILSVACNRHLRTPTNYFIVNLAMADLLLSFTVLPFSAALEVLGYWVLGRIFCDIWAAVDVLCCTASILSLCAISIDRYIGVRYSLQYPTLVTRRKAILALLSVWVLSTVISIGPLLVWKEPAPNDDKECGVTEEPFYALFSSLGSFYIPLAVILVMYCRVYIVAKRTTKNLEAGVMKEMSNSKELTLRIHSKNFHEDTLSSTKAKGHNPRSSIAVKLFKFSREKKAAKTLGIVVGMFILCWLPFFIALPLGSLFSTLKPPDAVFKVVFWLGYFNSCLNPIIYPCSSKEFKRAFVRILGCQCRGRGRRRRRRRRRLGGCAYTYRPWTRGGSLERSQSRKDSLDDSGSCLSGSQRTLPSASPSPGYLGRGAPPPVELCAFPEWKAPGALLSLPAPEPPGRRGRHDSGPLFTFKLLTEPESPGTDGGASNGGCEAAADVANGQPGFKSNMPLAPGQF
Procedure: (§1) Signaling assays were performed with receptor constructs harboring the wild-type helix 8 and the full-length C-terminus as well as the entire ICL3. Agonist-induced IP1 accumulation was measured in transiently transfected HEK293T/17 cells, as described before. Twenty-four hours after transfection, cells were washed with phosphate-buffered saline (PBS), detached with trypsin-EDTA (Sigma), and resuspended in assay buffer (10 mM HEPES pH 7.4, 1 mM CaCl2, 0.5 mM MgCl2, 4.2 mM KCl, 146 mM NaCl, 50 mM LiCl, 5.5 mM glucose, 0.1% (w/v) BSA). […] IP1 accumulation was measured using the HTRF IP-One kit (Cisbio) according to the manufacturer’s protocol on a SPARK fluorescence plate reader (Tecan).

α1BAR S150^34.50→Y = molecular target: T2, α1BAR S150^34.50→Y (Homo sapiens, UniProt P35368, S150Y); experiment: as above; type: cell-based
T2 construct: harboring the wild-type helix 8 and the full-length C-terminus as well as the entire ICL3; expressed in transfected cells; host or cells: HEK293T/17
T2 sequence (P35368 whole entry S150Y): as the sequence (P35368 whole entry G183V) above, with S150Y, V183G counted along it
Procedure: as §1

α1BAR S168^4.48→C = molecular target: T3, α1BAR S168^4.48→C (Homo sapiens, UniProt P35368, S168C); experiment: as above; type: cell-based; details: for IP1 concentration: S168C, listed as PE
T3 construct: harboring the wild-type helix 8 and the full-length C-terminus as well as the entire ICL3; expressed in transfected cells; host or cells: HEK293T/17
T3 sequence (P35368 1-520 S168C): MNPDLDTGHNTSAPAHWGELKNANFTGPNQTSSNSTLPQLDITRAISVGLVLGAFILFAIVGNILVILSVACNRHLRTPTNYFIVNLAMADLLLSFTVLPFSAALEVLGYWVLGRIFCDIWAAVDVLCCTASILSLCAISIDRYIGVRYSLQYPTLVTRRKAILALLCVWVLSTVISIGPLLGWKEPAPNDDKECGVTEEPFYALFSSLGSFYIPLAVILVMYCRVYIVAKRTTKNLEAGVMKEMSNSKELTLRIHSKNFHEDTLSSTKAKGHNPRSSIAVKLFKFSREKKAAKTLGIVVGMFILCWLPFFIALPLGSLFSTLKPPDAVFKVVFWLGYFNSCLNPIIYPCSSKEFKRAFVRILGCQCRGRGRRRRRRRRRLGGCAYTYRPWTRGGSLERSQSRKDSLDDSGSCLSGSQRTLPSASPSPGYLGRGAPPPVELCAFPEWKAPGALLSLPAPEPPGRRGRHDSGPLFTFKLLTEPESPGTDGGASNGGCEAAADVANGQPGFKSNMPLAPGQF
Procedure: (§2) Signaling assays were performed with receptor constructs harboring the wild-type helix 8 and the full-length C-terminus as well as the entire ICL3. Agonist-induced IP1 accumulation was measured in transiently transfected HEK293T/17 cells, as described before. […] IP1 accumulation was measured using the HTRF IP-One kit (Cisbio) according to the manufacturer’s protocol on a SPARK fluorescence plate reader (Tecan).

α1BAR P349^7.54→L = molecular target: T4, α1BAR P349^7.54→L (Homo sapiens, UniProt P35368, P349L); experiment: as above; type: cell-based
T4 construct: receptor constructs harboring the wild-type helix 8 and the full-length C-terminus as well as the entire ICL3; expressed in transfected cells; host or cells: HEK293T/17
T4 sequence (P35368 whole entry P349L): as the sequence (P35368 whole entry G183V) above, with V183G, P349L counted along it
Procedure: as §2

α1BAR D191^ECL2→Y = molecular target: T5, α1BAR D191^ECL2→Y (Homo sapiens, UniProt P35368, D191Y); experiment: as above; type: cell-based; details: for IP1 concentration: D191Y, listed as PE
T5 construct: harboring the wild-type helix 8 and the full-length C-terminus as well as the entire ICL3; expressed in transfected cells; host or cells: HEK293T/17
T5 sequence (P35368 1-520 D191Y): T3 sequence (P35368 1-520 S168C) with C168S, D191Y
Procedure: as §2

α1BAR S95^2.54→C = molecular target: T6, α1BAR S95^2.54→C (Homo sapiens, UniProt P35368, S95C); experiment: as above; type: cell-based; details: for IP1 concentration: S95C, listed as PE
T6 construct: harboring the wild-type helix 8 and the full-length C-terminus as well as the entire ICL3; expressed in transfected cells; host or cells: HEK293T/17
T6 sequence (P35368 1-520 S95C): T3 sequence (P35368 1-520 S168C) with S95C, C168S
Procedure: as §2

α1BAR V124^3.31→M = molecular target: T7, α1BAR V124^3.31→M (Homo sapiens, UniProt P35368, V124M); experiment: as above; type: cell-based
T7 construct: harboring the wild-type helix 8 and the full-length C-terminus as well as the entire ICL3; expressed in transfected cells; host or cells: HEK293T/17
T7 sequence (P35368 whole entry V124M): as the sequence (P35368 whole entry G183V) above, with V124M, V183G counted along it
Procedure: as §2

α1BAR T295^6.36→M = molecular target: T8, α1BAR T295^6.36→M (Homo sapiens, UniProt P35368, T295M); experiment: as above; type: cell-based
T8 construct: harboring the wild-type helix 8 and the full-length C-terminus as well as the entire ICL3; expressed in transfected cells; host or cells: HEK293T/17
T8 sequence (P35368 whole entry T295M): as the sequence (P35368 whole entry G183V) above, with V183G, T295M counted along it
Procedure: as §2

α1BAR I116^3.23→T = molecular target: T9, α1BAR I116^3.23→T (Homo sapiens, UniProt P35368, I116T); experiment: as above; type: cell-based
T9 construct: harboring the wild-type helix 8 and the full-length C-terminus as well as the entire ICL3; expressed in transfected cells; host or cells: HEK293T/17
T9 sequence (P35368 whole entry I116T): as the sequence (P35368 whole entry G183V) above, with I116T, V183G counted along it
Procedure: as §2

α1BAR E194^ECL2→V = molecular target: T10, α1BAR E194^ECL2→V (Homo sapiens, UniProt P35368, E194V); experiment: as above; type: cell-based
T10 construct: harboring the wild-type helix 8 and the full-length C-terminus as well as the entire ICL3; expressed in transfected cells; host or cells: HEK293T/17
T10 sequence (P35368 whole entry E194V): as the sequence (P35368 whole entry G183V) above, with V183G, E194V counted along it
Procedure: as §2

α1BAR V333^7.38→L = molecular target: T11, α1BAR V333^7.38→L (Homo sapiens, UniProt P35368, V333L); experiment: as above; type: cell-based
T11 construct: harboring the wild-type helix 8 and the full-length C-terminus as well as the entire ICL3; expressed in transfected cells; host or cells: HEK293T/17
T11 sequence (P35368 whole entry V333L): as the sequence (P35368 whole entry G183V) above, with V183G, V333L counted along it
Procedure: as §2

wild-type α1BAR = molecular target: T12, wild-type α1BAR (Homo sapiens, UniProt P35368); experiment: as above; type: cell-based; details: reference construct
T12 construct: harboring the wild-type helix 8 and the full-length C-terminus as well as the entire ICL3; expressed in transfected cells; host or cells: HEK293T/17
T12 sequence (P35368 whole entry): as the sequence (P35368 whole entry G183V) above, with V183G counted along it
Procedure: as §2

[2] = test system: α1BAR expressed in E. coli; design: method as in ref Schuster, M. et al., Biochim. Biophys. Acta Biomembr. 1862, 183354 (2020); details: ref Schuster, M. et al., Biochim. Biophys. Acta Biomembr. 1862, 183354 (2020), read-out: affinity; cited from earlier work
[3] = test system: α1BAR expressed in mammalian cells; details: ref Docherty, J. R., Eur. J. Pharmacol. 855, 305-320 (2019), cited from earlier work; for Kd: α1BAR expressed in mammalian cells

Structure (SMILES): COc1cc2nc(N3CCN(C(=O)c4ccco4)CC3)nc(N)c2cc1OC [3H-prazosin]
- impact of the L334/F334 mutation on affinity [1]: only a minor impact

Structure (SMILES): CNC[C@H](O)c1cccc(O)c1 [Phenylephrine]
- Emax (α1BAR G183^4.63→V): 9 ± 18.5%
- Emax (α1BAR S150^34.50→Y): 13.4 ± 1.7%
- Emax (α1BAR S168^4.48→C; HEK293T/17, IP1 accumulation): 96.8 ± 8%
- IP1 concentration (α1BAR S168^4.48→C; [PE] -4 log M): 678.88 and 634.809 and 694.6 and 789.857 and 654.693 and 717.983
- IP1 concentration (α1BAR S168^4.48→C; [PE] -4.69897 log M): 546.031 and 536.624 and 592.13 and 637.69 and 619.808 and 699.597
- IP1 concentration (α1BAR S168^4.48→C; [PE] -5.39794 log M): 630.294 and 403.102 and 536.003 and 572.191 and 548.559 and 641.7
- IP1 concentration (α1BAR S168^4.48→C; [PE] -6.09691 log M): 373.984 and 293.041 and 368.158 and 357.195 and 468.9 and 570.413
- IP1 concentration (α1BAR S168^4.48→C; [PE] -6.79588 log M): 213.187 and 230.01 and 327.882 and 336.101 and 329.963 and 356.634
- Emax (α1BAR P349^7.54→L): 27.3 ± 4.1%
- IP1 concentration (α1BAR D191^ECL2→Y; [PE] -4 log M): 519.698 and 441.949 and 662.352 and 730.409 and 630.141 and 710.683
- IP1 concentration (α1BAR D191^ECL2→Y; [PE] -4.69897 log M): 370.913 and 393.347 and 353.075 and 528.612 and 529.351 and 631.077
- IP1 concentration (α1BAR D191^ECL2→Y; [PE] -5.39794 log M): 322.315 and 263.99 and 343.654 and 369.218 and 447.164 and 499.2
- Emax (α1BAR D191^ECL2→Y; HEK293T/17, IP1 accumulation): 89.6 ± 4.7%
- Emax (α1BAR S95^2.54→C; HEK293T/17, IP1 accumulation): 71.9 ± 5.7%
- IP1 concentration (α1BAR S95^2.54→C; [PE] -4 log M): 377.435 and 437.765 and 593.664 and 690.124 and 481.642 and 456.558
- IP1 concentration (α1BAR S95^2.54→C; [PE] -4.69897 log M): 323.191 and 422.658 and 500.281 and 586.924 and 403.917 and 432.8
- IP1 concentration (α1BAR S95^2.54→C; [PE] -5.39794 log M): 269.373 and 257.6 and 377.64 and 428.644 and 333.33 and 361.512
- Emax (α1BAR V124^3.31→M): 84.2 ± 6.3%
- Emax (α1BAR T295^6.36→M): 50.7 ± 5.9%
- Emax (α1BAR I116^3.23→T): 71.2 ± 6.4%
- IP1 concentration (α1BAR E194^ECL2→V; E194V, [PE] -4 log M, listed as PE): 499.282 and 565.119 and 803.974 and 817.17 and 667.593 and 781.933
- Emax (α1BAR E194^ECL2→V; HEK293T/17, IP1 accumulation): 85.4 ± 7.4%
- Emax (α1BAR V333^7.38→L): 79.8 ± 5.2%
- Emax (wild-type α1BAR): 100%

Structure (SMILES): COc1cc2nc(N3CCN(C(=O)c4ccco4)CC3)nc(N)c2cc1OC [prazosin]
- Kd [2]: 0.074 nM
- affinity as pK value (RLBA) ([3]; radioligand binding): 9.26–10.3
- Kd ([3]; read-out: affinity range reported in the literature): 0.05 to 0.55 nM
- Kd ([3]; read-out: mean affinity reported in the literature): 0.11 nM
